What was measured:
Format in all cases: in vivo
[1] = tested on: Diabrotica Balteata (Corn Root Worm); assay: Example B1: Diabrotica balteata, spray on maize sprouts; details: 96 h, application rate of 200 ppm, L2 larvae, 4 days after infestation, read-out: control in at least one of the two categories (mortality or growth inhibition)
Procedure: Maize sprouts placed onto an agar layer in 24-well microtiter plates were treated with aqueous test solutions prepared from 10′000 ppm DMSO stock solutions by spraying. After drying, the plates were infested with L2 larvae (6 to 10 per well). The samples were assessed for mortality and growth inhibition in comparison to untreated samples 4 days after infestation.

[2] = tested on: Chilo suppressalis (Striped Rice Stemborer); assay: Example B4: Chilo suppressalis, artificial diet; details: 144 h, application rate of 200 ppm, L2 larvae, 6 days after infestation, read-out: control in at least one of the three categories (mortality, anti-feedant effect, or growth inhibition)
Procedure: 24-well microtiter plates with artificial diet were treated with aqueous test solutions prepared from 10′000 ppm DMSO stock solutions by pipetting. After drying, the plates were infested with L2 larvae (6-8 per well). The samples were assessed for mortality, anti-feeding effect, and growth inhibition in comparison to untreated samples 6 days after infestation. Control of Chilo suppressalis by a test sample is given when at least one of the categories mortality, anti-feedant effect, and growth inhibition is higher than the untreated sample.

[3] = tested on: Plutella xylostella (Diamond Back Moth); assay: Example B5: Plutella xylostella, artificial diet, 24-well; details: 192 h, application rate of 200 ppm, eggs, 8 days after infestation, read-out: control in at least one of the two categories (mortality or growth inhibition)
Procedure: 24-well microtiter plates with artificial diet were treated with aqueous test solutions prepared from 10′000 ppm DMSO stock solutions by pipetting. After drying, Plutella eggs were pipetted through a plastic stencil onto a gel blotting paper and the plate was closed with it. The samples were assessed for mortality and growth inhibition in comparison to untreated samples 8 days after infestation.

[4] = tested on: Spodoptera littoralis (Egyptian Cotton Leaf Worm); assay: Example B9: Spodoptera littoralis, spray on cotton leaf discs; details: foliar, 72 h, application rate of 200 ppm, L1 larvae, 3 days after infestation, read-out: control in at least one of the three categories (mortality, anti-feedant effect, or growth inhibition)
Procedure: Cotton leaf discs were placed onto agar in 24-well microtiter plates and sprayed with aqueous test solutions prepared from 10′000 ppm DMSO stock solutions. After drying the leaf discs were infested with five L1 larvae. The samples were assessed for mortality, anti-feeding effect, and growth inhibition in comparison to untreated samples 3 days after infestation. Control of Spodoptera littoralis by a test sample is given when at least one of the categories mortality, anti-feedant effect, and growth inhibition is higher than the untreated sample.

[5] = tested on: Plutella xylostella (Diamondback Moth); assay: Example B13: Plutella xylostella, artificial diet, 96-well; details: 216 h, application rate of 500 ppm, eggs/L1 larvae, 9 days after infestation
Procedure: 96-well microtiter plates containing artificial diet were treated with aqueous test solutions, prepared from 10′000 ppm DMSO stock solutions, by a liquid handling robot. After drying, eggs (˜30 per well) were infested onto a netted lid which was suspended above the diet. The eggs hatch and L1 larvae move down to the diet. The samples were assessed for mortality 9 days after infestation.

CC(NC(=O)c1cc(C(F)(F)F)cc(C(F)(F)F)c1)c1nc(-c2ncccn2)nn1-c1ccc(C#N)cn1 (stereo not drawn) [Compound P32, N-[1-[2-(5-cyano-2-pyridyl)-5-pyrimidin-2-yl-1,2,4-triazol-3-yl]ethyl]-3,5-bis(trifluoromethyl) benzamide]
≥ 80%: percent control (mortality or growth inhibition) at 200 ppm [1] | percent control (mortality, anti-feedant effect or growth inhibition) at 200 ppm [2] | percent control (mortality or growth inhibition) at 200 ppm [3] | percent control (mortality, anti-feedant effect or growth inhibition) at 200 ppm [4]

CC(NC(=O)c1cc(OCC(F)F)cc(C(F)(F)F)c1)c1nc(Br)nn1-c1ccc(OC(F)F)cn1 (stereo not drawn) [Compound P34, N-[1-[5-bromo-2-[5-(difluoromethoxy)-2-pyridyl]-1,2,4-triazol-3-yl]ethyl]-3-(2,2-difluoroethoxy)-5-(trifluoromethyl) benzamide]
≥ 80%: percent control (mortality or growth inhibition) at 200 ppm [1] | percent control (mortality, anti-feedant effect or growth inhibition) at 200 ppm [2] | percent control (mortality or growth inhibition) at 200 ppm [3] | percent control (mortality, anti-feedant effect or growth inhibition) at 200 ppm [4]

CC(NC(=O)c1cc(OC(F)F)cc(C(F)(F)F)c1)c1nc(Br)nn1-c1ccc(OCC(F)(F)F)cn1 (stereo not drawn) [Compound P38, N-[1-[5-bromo-2-[5-(2,2,2-trifluoroethoxy)-2-pyridyl]-1,2,4-triazol-3-yl]ethyl]-3-(difluoromethoxy)-5-(trifluoromethyl) benzamide]
≥ 80%: percent control (mortality or growth inhibition) at 200 ppm [1] | percent control (mortality, anti-feedant effect or growth inhibition) at 200 ppm [2] | percent control (mortality or growth inhibition) at 200 ppm [3] | percent control (mortality, anti-feedant effect or growth inhibition) at 200 ppm [4]

CC(NC(=O)c1cc(C(F)F)cc(C(F)(F)F)c1)c1nc(Br)nn1-c1ccc(OC(F)F)cn1 (stereo not drawn) [Compound P51, N-[1-[5-bromo-2-[5-(difluoromethoxy)-2-pyridyl]-1,2,4-triazol-3-yl]ethyl]-3-(difluoromethyl)-5-(trifluoromethyl) benzamide]
≥ 80%: percent control (mortality or growth inhibition) at 200 ppm [1] | percent control (mortality, anti-feedant effect or growth inhibition) at 200 ppm [2] | percent control (mortality or growth inhibition) at 200 ppm [3] | percent control (mortality, anti-feedant effect or growth inhibition) at 200 ppm [4]

CC(NC(=O)c1cc(OCC(F)(F)F)cc(C(F)(F)F)c1)c1nc(Br)nn1-c1ccc(OCC(F)F)cn1 (stereo not drawn) [Compound P53, N-[1-[5-bromo-2-[5-(2,2-difluoroethoxy)-2-pyridyl]-1,2,4-triazol-3-yl]ethyl]-3-(2,2,2-trifluoroethoxy)-5-(trifluoromethyl) benzamide]
≥ 80%: percent control (mortality, anti-feedant effect or growth inhibition) at 200 ppm [2] | mortality at 500 ppm [5] | percent control (mortality or growth inhibition) at 200 ppm [3]

CC(NC(=O)c1cc(C(F)F)cc(C(F)(F)F)c1)c1nc(Br)nn1-c1ccc(OCC(F)(F)F)cn1 (stereo not drawn) [Compound P54, N-[1-[5-bromo-2-[5-(2,2,2-trifluoroethoxy)-2-pyridyl]-1,2,4-triazol-3-yl]ethyl]-3-(difluoromethyl)-5-(trifluoromethyl) benzamide]
≥ 80%: percent control (mortality or growth inhibition) at 200 ppm [1] | percent control (mortality, anti-feedant effect or growth inhibition) at 200 ppm [2] | percent control (mortality or growth inhibition) at 200 ppm [3] | percent control (mortality, anti-feedant effect or growth inhibition) at 200 ppm [4]

CO/N=C(\C)c1nc(C(C)NC(=O)c2cc(C(F)(F)F)cc(C(F)(F)F)c2)n(-c2ccc(C#N)cn2)n1 (stereo not drawn) [Compound P56, N-[1-[2-(5-cyano-2-pyridyl)-5-[(E)-N-methoxy-C-methyl-carbonimidoyl]-1,2,4-triazol-3-yl]ethyl]-3,5-bis(trifluoromethyl) benzamide]
≥ 80%: mortality at 500 ppm [5]

Source: patent US12552766B2, “Pesticidally active azole amide compounds” (SYNGENTA CROP PROTECTION AG, priority 2019, dated 2026)
